Laboratory results: patent publication US20020031795A1, “Nitrocoumarins for detecting all micro-organisms” (priority 1998, published 2002)

Experiments:
Assay type in all cases: cell-based
[1] = tested on: Hafnia alvei; assay: Reduction of the indicator by wild Enterobacteriaceae strain (fluorescence); conditions: 0.17 mmol/l
Protocol: (§1) The E. coli was grown for 24 hours at 35° C. on Columbia agar supplemented with sheep blood. The bacteria were then resuspended in sterile, distilled water and their density was adjusted to 0.5 on the MacFarland scale (i.e. about 10^8 cells/ml). This suspension was then diluted 100-fold in sterile Mueller-Hinton broth (i.e. to a final density of about 10^6 cells/ml).
(§2) Fifty microliters of each nitrocoumarin solution plus 50 μl of bacterial suspension were then added to the wells of a microtiter plate. The plates were incubated at 35° C. and the optical density and fluorescence of each well was read every 30 min for a total of 4 hours. Optical density (690 nm) readings were made using an Anthos 2001 spectrophotometer (Labtech International Limited), and fluorescence (excitation at 365 nm and emission at 440 nm) readings were made on a Biolite F1 2001 fluorometer (Labtech International Limited).
(§3) This experiment was designed to investigate whether or not it would be possible to detect Enterobacteriaceae other than E. coli using 7-nitrocoumarin-3-carboxylic acid. The conditions for this experiment were similar to those described for the first experiment (section A).
(§4) Five wild strains belonging to the species Citrobacter diversus, Enterobacter agglomerans, Hafnia alvei, Morganella morganii and Shigella sonnei were tested

[2] = tested on: Shigella sonnei; assay: as above; conditions: 0.17 mmol/l
Protocol: as §1, §2, §3, §4

[3] = tested on: Citrobacter diversus; assay: as above; conditions: 0.17 mmol/l
Protocol: as §1, §2, §3, §4

[4] = tested on: Morganella morganii; assay: as above; conditions: 0.17 mmol/l
Protocol: as §1, §2, §3, §4

[5] = tested on: Enterobacter agglomerans; assay: as above; conditions: 0.17 mmol/l
Protocol: as §1, §2, §3, §4

[6] = tested on: sixteen different microorganisms; assay: Growth indicator test on sixteen different microorganisms (summary)
Protocol: This experiment was performed to test 7-nitrocoumarin-3-carboxylic acid on sixteen (16) different types of microorganism, including one yeast species.
A mass of 10 mg of the indicator was dissolved in 4 ml of hot, distilled water and this solution was then added to 96 ml of Trypticase Soy broth. The resultant mixture was sterile-filtered.
All the microorganisms were grown for 24 hours in Trypticase Soy broth at 35° C. Each culture was then diluted 1,000-fold in Trypticase Soy broth and then serial 10-fold dilutions were made in more Trypticase Soy broth until the test aliquot contained no more microbial cells.
The resultant dilutions ranged from 10^−3 to 10^−13.
Fifty microliters of each dilution plus 50 μl of Trypticase Soy broth were added to wells of a microtiter plate with or without 7-nitrocoumarin-3-carboxylic acid.
The plates were read (T zero) and then incubated at 35° C. before being read again after 24 hours. Two different readings were made at each time point: […]
of the fluorescence (excitation at 365 nm and emission at 440 nm), using a Biolite F1 2001 fluorometer (Labtech International Limited), for wells containing 7-nitrocoumarin-3-carboxylic acid.
In order to check the correlation between growth and the fluorescence results, the contents of each well were seeded on Columbia agar supplemented with sheep blood.

[7] = tested on: five different species of Enterobacteriaceae; assay: Reduction by wild strains of five species of Enterobacteriaceae (summary); conditions: 0.17 mmol/l
Protocol: as §3, §4

Q: Which Fluorescent signal ([1]; 0 min) does the source give for `O=C(O)c1cc2ccc([N+](=O)[O-])cc2oc1=O` [7-nitrocoumarin-3-carboxylic acid] here?
A: The Fluorescent signal was 0.

Q: And the Fluorescent signal ([1]; 30 min)?
A: Its Fluorescent signal is −24.

Q: And the Fluorescent signal ([1]; 60 min)?
A: Its Fluorescent signal is −30.

Q: And the Fluorescent signal ([1]; 90 min)?
A: Its Fluorescent signal is 0.

Q: And the Fluorescent signal ([1]; 120 min)?
A: Its Fluorescent signal is 40.

Q: And the Fluorescent signal ([1]; 150 min)?
A: Its Fluorescent signal is 122.

Q: And the Fluorescent signal ([1]; 180 min)?
A: Its Fluorescent signal is 260.

Q: What about the Fluorescent signal ([1]; 210 min) of the same compound?
A: The Fluorescent signal was 775.

Q: What about the Fluorescent signal ([1]; 240 min) of the same compound?
A: Its Fluorescent signal is 2048.

Q: What about the Fluorescent signal ([2]; 0 min) of the same compound?
A: Its Fluorescent signal is 0.

Q: What about the Fluorescent signal ([2]; 30 min) of the same compound?
A: The Fluorescent signal was −9.

Q: What about the Fluorescent signal ([2]; 60 min) of the same compound?
A: Its Fluorescent signal is 15.

Q: What about the Fluorescent signal ([2]; 90 min) of the same compound?
A: The Fluorescent signal was 52.

Q: And the Fluorescent signal ([2]; 120 min)?
A: The Fluorescent signal was 162.

Q: And the Fluorescent signal ([2]; 150 min)?
A: The Fluorescent signal was 434.

Q: And the Fluorescent signal ([2]; 180 min)?
A: The Fluorescent signal was 1108.

Q: And the Fluorescent signal ([2]; 210 min)?
A: Its Fluorescent signal is 3095.

Q: And the Fluorescent signal ([2]; 240 min)?
A: The Fluorescent signal was 8567.

Q: What about the Fluorescent signal ([3]; 0 min) of the same compound?
A: The Fluorescent signal was 0.

Q: And the Fluorescent signal ([3]; 30 min)?
A: Its Fluorescent signal is 3.

Q: What about the Fluorescent signal ([3]; 60 min) of the same compound?
A: Its Fluorescent signal is 3.

Q: What about the Fluorescent signal ([3]; 90 min) of the same compound?
A: Its Fluorescent signal is 34.

Q: And the Fluorescent signal ([3]; 120 min)?
A: The Fluorescent signal was 92.

Q: What about the Fluorescent signal ([3]; 150 min) of the same compound?
A: Its Fluorescent signal is 281.

Q: And the Fluorescent signal ([3]; 180 min)?
A: The Fluorescent signal was 546.

Q: What about the Fluorescent signal ([3]; 210 min) of the same compound?
A: Its Fluorescent signal is 1209.

Q: And the Fluorescent signal ([3]; 240 min)?
A: The Fluorescent signal was 5393.

Q: And the Fluorescent signal ([4]; 0 min)?
A: The Fluorescent signal was 0.

Q: What about the Fluorescent signal ([4]; 30 min) of the same compound?
A: The Fluorescent signal was −42.

Q: And the Fluorescent signal ([4]; 60 min)?
A: The Fluorescent signal was −24.

Q: What about the Fluorescent signal ([4]; 90 min) of the same compound?
A: Its Fluorescent signal is −15.

Q: And the Fluorescent signal ([4]; 120 min)?
A: The Fluorescent signal was 31.

Q: And the Fluorescent signal ([4]; 150 min)?
A: The Fluorescent signal was 95.

Q: And the Fluorescent signal ([4]; 180 min)?
A: Its Fluorescent signal is 403.

Q: What about the Fluorescent signal ([4]; 210 min) of the same compound?
A: Its Fluorescent signal is 2170.

Q: And the Fluorescent signal ([4]; 240 min)?
A: The Fluorescent signal was 8128.

Q: And the Fluorescent signal ([5]; 0 min)?
A: The Fluorescent signal was 0.

Q: What about the Fluorescent signal ([5]; 30 min) of the same compound?
A: Its Fluorescent signal is −15.

Q: And the Fluorescent signal ([5]; 60 min)?
A: Its Fluorescent signal is −3.

Q: What about the Fluorescent signal ([5]; 90 min) of the same compound?
A: Its Fluorescent signal is 9.

Q: What about the Fluorescent signal ([5]; 120 min) of the same compound?
A: Its Fluorescent signal is 74.

Q: And the Fluorescent signal ([5]; 150 min)?
A: Its Fluorescent signal is 199.

Q: What about the Fluorescent signal ([5]; 180 min) of the same compound?
A: Its Fluorescent signal is 501.

Q: And the Fluorescent signal ([5]; 210 min)?
A: Its Fluorescent signal is 1246.

Q: And the Fluorescent signal ([5]; 240 min)?
A: Its Fluorescent signal is 4099.

Q: And the “Correlation of fluorescence readings with microbial growth (in words)” value ([6]; 24 hours, Trypticase Soy broth)?
A: Its value is “correlate closely with microbial growth patterns for all the species tested”.

Q: And the “Sensitivity of the assay (in words)” value ([6]; limiting dilution)?
A: Its value is “capable of detecting a single viable cell”.

Q: And the “Reduction by wild strains of five Enterobacteriaceae species (in words)” value [7]?
A: Its value is “All the strains tested were found to be able to reduce this compound”.
